pIC50: −log10 of the molar value.

The experiment addresses T1, Human TRPV3 (Homo sapiens, UniProt Q8NET8).
T1 construct: expressed in transfected cells; host or cells: CHO cells (selected with G-418)
T1 sequence (Q8NET8 1-790): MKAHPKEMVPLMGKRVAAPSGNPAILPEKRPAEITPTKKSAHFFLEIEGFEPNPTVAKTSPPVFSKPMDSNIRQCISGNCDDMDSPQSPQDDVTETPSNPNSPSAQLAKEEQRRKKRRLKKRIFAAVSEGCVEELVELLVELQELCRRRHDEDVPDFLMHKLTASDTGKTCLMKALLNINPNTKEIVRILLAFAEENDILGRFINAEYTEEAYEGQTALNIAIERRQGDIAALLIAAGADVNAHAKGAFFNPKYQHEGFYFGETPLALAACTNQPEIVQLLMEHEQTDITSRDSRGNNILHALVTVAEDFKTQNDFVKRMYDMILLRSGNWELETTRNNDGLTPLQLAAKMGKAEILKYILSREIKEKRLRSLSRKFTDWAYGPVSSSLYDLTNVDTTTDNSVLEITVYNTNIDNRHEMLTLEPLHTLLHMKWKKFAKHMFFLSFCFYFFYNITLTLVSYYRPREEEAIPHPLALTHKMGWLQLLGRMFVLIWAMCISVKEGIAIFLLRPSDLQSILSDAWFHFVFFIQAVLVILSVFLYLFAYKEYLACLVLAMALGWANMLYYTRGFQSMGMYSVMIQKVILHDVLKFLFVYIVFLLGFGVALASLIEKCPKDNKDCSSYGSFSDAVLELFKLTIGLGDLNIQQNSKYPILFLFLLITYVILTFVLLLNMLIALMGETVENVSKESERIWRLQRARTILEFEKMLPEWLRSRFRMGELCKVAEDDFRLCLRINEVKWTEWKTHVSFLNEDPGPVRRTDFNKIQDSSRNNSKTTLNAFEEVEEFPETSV
Kind of experiment: 45Calcium uptake assay: inhibition of 2-APB induced cellular uptake of radioactive calcium. The format is cell-based. The following applies: human TRPV3 expressing CHO cells, 2-APB 500 μM; for inhibition at 1 µM: 1 μM test compound, read-out: Percentage Inhibition (1 μM); for inhibition at 10 µM: 10 μM test compound, read-out: Percentage Inhibition (10 μM); for pIC50: class symbol. In outline:
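CHO cells expressing human TRPV3 were preincubated with compound for 10 min (0.5% DMSO final), then given 500 μM 2-APB plus 5 μCi/ml 45Ca2+ for 4 min. Lysate radioactivity was counted by scintillation; responses as % of maximal without antagonist, with IC50 by nonlinear regression.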

By inhibition is commonly meant the share of the control response that was lost under treatment. In general, pIC50 refers to the negative decadic logarithm of the IC50, by convention in mol/L. Take `CCCCOc1c(/C=C/c2nc3ccccc3n2-c2ccc(C#N)cc2)cccc1OC` [Example 36, 4-{2-[(E)-2-(2-Butoxy-3-methoxyphenyl)vinyl]-1H-benzimidazol-1-yl}benzonitrile]: the inhibition at 1 µM amounted to 82.8%, the inhibition at 10 µM turned out to be 96% and the pIC50 was 6.30 to 7.00.
Regarding `COc1cccc(/C=C/c2nc3ccccc3n2-c2ncc(C#N)s2)c1OC1CCCC1` [Example 48, 2-{2-[(E)-2-(2-[Cyclopentyloxy]-3-methoxyphenyl)vinyl]-1H-benzimidazol-1-yl}-1,3-thiazole-5-carbonitrile], the inhibition at 1 µM is 43.5% and the inhibition at 10 µM stood at 75.8%.
Turning to `COc1cccc(/C=C/c2nc3cc(C(F)(F)F)ccc3n2-c2ccc(C#N)cn2)c1OC1CCCC1` [Example 57, 6-{2-[(E)-2-(2-[Cyclopentyloxy]-3-methoxyphenyl)vinyl]-5-(trifluoromethyl)-1H-benzimidazol-1-yl}nicotinonitrile], the inhibition at 1 µM was 93%, the inhibition at 10 µM worked out at 96.1% and the negative-log IC50 (pIC50) was 6.30 to 7.00.
Take `CCCCOc1c(/C=C/c2nc3cccnc3n2-c2ccc(C#N)cn2)cccc1OC` [Example 86, 6-{2-[(E)-2-(2-Butoxy-3-methoxyphenyl)vinyl]-3H-imidazo[4,5-b]pyridin-3-yl}nicotinonitrile]: the inhibition at 1 µM is 92.6%, the inhibition at 10 µM came to 95.2% and the pIC50 is 6.30 to 7.00.
Taken in the same sequence, the figures for `COc1cccc(/C=C/c2nc3ccccc3n2-c2ccc(C#N)cn2)c1OCc1ccccc1C(F)(F)F` [Example 16, 6-{2-[(E)-2-(3-Methoxy-2-{[2-(trifluoromethyl)benzyl]oxy}phenyl)vinyl]-1H-benzimidazole-1-yl}nicotinonitrile] were 97.7%, 99% and 7.00 to 7.30.
As to `CCOC(=O)c1ccc(-n2c(/C=C/c3cccc(OC)c3OC3CCCC3)nc3ccccc32)nn1` [Example 19, Ethyl 6-{2-[(E)-2-(2-[Cyclopentyloxy]-3-methoxyphenyl)vinyl]-1H-benzimidazol-1-yl}pyridazine-3-carboxylate], the inhibition at 1 µM worked out at 82.9%, the inhibition at 10 µM came to 95.9% and the pIC50 is 6.30 to 7.00.
Turning to `CCCCCOc1c(/C=C/c2nc3c(F)c(F)c(F)cc3n2-c2ccc(C#N)cn2)cccc1OC` [Example 81, 6-{2-[(E)-2-(2-pentyloxy-3-methoxyphenyl)vinyl]-4,5,6-trifluoro-1H-benzimidazol-1-yl}nicotinonitrile], the inhibition at 1 µM stood at 90.7%, the inhibition at 10 µM is 95.7% and the negative-log IC50 (pIC50) is above 7.30.
As to `COc1cccc(/C=C/c2nc3ccccc3n2-c2ccccn2)c1OC1CCCC1` [Example 2, 2-[(E)-2-(2-Cyclopentyloxy-3-methoxyphenyl)vinyl]-1-pyridin-2-yl-1H-benzimidazole], the inhibition at 1 µM came out at 3.64% and the inhibition at 10 µM amounted to 85%.
On to `N#Cc1ccc(-n2c(/C=C/c3cccc(OC(F)F)c3OCC3CCC3)nc3cc(F)c(F)cc32)nc1` [Example 83, 6-(2-{(E)-2-[2-(Cyclobutylmethoxy)-3-difluoromethoxyphenyl]vinyl}-5,6-difluoro-1H-benzimidazol-1-yl)nicotinonitrile], for which the inhibition at 1 µM turned out to be 96.7%, the inhibition at 10 µM amounted to 97.7% and the pIC50 is above 7.30.
Taken in the same sequence, the figures for `CCCCCOc1c(/C=C/c2nc3cccnc3n2-c2ccc(C#N)cn2)cccc1OC(F)F` [Example 96, 6-(2-{(E)-2-[3-(Difluoromethoxy)-2-pentyloxyphenyl]vinyl}-3H-imidazo[4,5-b]pyridin-3-yl)nicotinonitrile] were 97.1%, 98.1% and 7.00 to 7.30.
In the case of `COc1cccc(/C=C/c2nc3ccccc3n2-c2ccc(C#N)cc2)c1OCc1ccccc1` [Example 34, 4-{2-[(E)-2-(2-Benzyloxy-3-methoxyphenyl)vinyl]-1H-benzimidazol-1-yl}benzonitrile], the inhibition at 1 µM turned out to be 69.9%, the inhibition at 10 µM worked out at 86.8% and the pIC50 was below 6.30.
With `COc1cccc(/C=C/c2nc3ccccc3n2-c2ccc(C(F)(F)F)cc2)c1OCC1CC1` [Example 37, 2-[(E)-2-(2-Cyclopropylmethoxy-3-methoxyphenyl)vinyl]-1-[4-(trifluoromethyl)phenyl]-1H-benzimidazole], the inhibition at 1 µM came to 72.2%, the inhibition at 10 µM was found to be 84.6% and the negative logarithm of the IC50 (pIC50) is 6.30 to 7.00.
The like results for `COc1ccc2nc(/C=C/c3cccc(OC)c3OC3CCCC3)n(-c3ccc(C#N)cn3)c2c1` [Example 51, 6-{2-[(E)-2-(2-Cyclopentyloxy-3-methoxyphenyl)vinyl]-6-methoxy-1H-benzimidazol-1-yl}nicotinonitrile] were, in that order, 96.2%, 97.8% and 7.00 to 7.30.
Turning to `CCCCCOc1c(/C=C/c2nc3cc(Cl)cnc3n2-c2ccc(C#N)cn2)cccc1OC` [Example 93, 6-{6-Chloro-2-[(E)-2-(2-pentyloxy-3-methoxyphenyl)vinyl]-3H-imidazo[4,5-b]pyridin-3-yl}nicotinonitrile], the inhibition at 1 µM came to 95.2%, the inhibition at 10 µM amounted to 97.6% and the pIC50 was 7.00 to 7.30.
As to `COc1cccc(/C=C/c2nc3ccccc3n2-c2ccccn2)c1OCC1CC1` [Example 1, 2-{(E)-2-[2-(Cyclopropylmethoxy)-3-methoxyphenyl]vinyl}-1-pyridin-2-yl-1H-benzimidazole], the inhibition at 1 µM worked out at 12.8% and the inhibition at 10 µM worked out at 78.5%.
With `CCC(CC)Oc1c(/C=C/c2nc3ccccc3n2-c2ncc(Br)cn2)cccc1OC` [Example 22, 1-(5-Bromopyrimidin-2-yl)-2-{(E)-2-[2-(1-ethylpropoxy)-3-methoxyphenyl]vinyl}-1H-benzimidazole], the inhibition at 1 µM was 70.6%, the inhibition at 10 µM was 89.2% and the negative-log IC50 (pIC50) was 6.30 to 7.00.
Consider `COc1cccc(/C=C/c2nc3ccccc3n2-c2ncc(Cl)cc2Cl)c1OCc1ccccc1` [Example 5, 2-[(E)-2-(2-Benzyloxy-3-methoxyphenyl)vinyl]-1-(3,5-dichloropyridin-2-yl)-1H-benzimidazole], for which the inhibition at 1 µM is 38.8% and the inhibition at 10 µM was 69.3%.
For `COc1cccc(/C=C/c2nc3cc(Cl)cnc3n2-c2ccc(C#N)cn2)c1OC1CCCC1` [Example 95, 6-{6-Chloro-2-[(E)-2-(2-(cyclopentyloxy)-3-methoxyphenyl)vinyl]-3H-imidazo[4,5-b]pyridin-3-yl}nicotinonitrile], the inhibition at 1 µM stood at 93.7%, the inhibition at 10 µM stood at 97.8% and the pIC50 is 7.00 to 7.30.
For the compound `COc1cccc(/C=C/c2nc3cccnc3n2-c2ccc(C#N)cn2)c1OCC1CCC1` [Example 90, 6-[2-{(E)-2-[2-(Cyclobutylmethoxy)-3-methoxyphenyl]vinyl}-3H-imidazo[4,5-b]pyridine-3-yl]nicotinonitrile], the inhibition at 1 µM came to 93.3%, the inhibition at 10 µM came to 98.2% and the pIC50 was 7.00 to 7.30.
As for `COc1cccc(/C=C/c2nc3cc(F)c(F)cc3n2-c2ccc(C#N)cn2)c1O` [Example 69, 6-{5,6-Difluoro-2-[(E)-2-(2-hydroxy-3-methoxyphenyl)vinyl]-1H-benzimidazol-1-yl}nicotinonitrile], the inhibition at 1 µM is 32.7% and the inhibition at 10 µM stood at 95.5%.
Consider `COc1cccc(/C=C/c2nc3cc(F)c(F)cc3n2-c2ccc(C#N)nn2)c1OC1CCCC1` [Example 76, 6-{2-[(E)-2-(2-Cyclopentyloxy-3-methoxyphenyl)vinyl]-5,6-difluoro-1H-benzimidazol-1-yl}pyridazine-3-carbonitrile], for which the inhibition at 1 µM was 96.3%, the inhibition at 10 µM amounted to 97% and the negative-log IC50 (pIC50) was 6.30 to 7.00.
On to `CCCCCOc1c(/C=C/c2nc3ccc[n+]([O-])c3n2-c2ccc(C#N)cn2)cccc1OC` [Example 88, 6(2-{(E)-2-[3-methoxy-2-(pentyloxy)phenyl]ethenyl}-4-oxido-3H-imidazo[4,5-b]pyridin-3-yl)pyridine-3-carbonitrile], for which the inhibition at 1 µM was 25.1% and the inhibition at 10 µM is 71.1%.
As to `COC(=O)c1ccc(-n2c(/C=C/c3cccc(OC)c3OC3CCCC3)nc3ccc(F)cc32)nc1` [Example 60, Methyl 6-{2-[(E)-2-(2-Cyclopentyloxy-3-methoxyphenyl)vinyl]-6-fluoro-1H-benzimidazol-1-yl}nicotinate], the inhibition at 1 µM is 32.1% and the inhibition at 10 µM was 30.2%.
